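Cells were grown in 96-well plates and exposed to each compound for 48 hours at five concentrations; endpoints were interpolated linearly between bracketing concentrations, or set to the highest concentration if not reached. GI50 = concentration required for 50% inhibition of growth.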 Active and inactive are the calls of the source. Cut-off read from the data, not from the text of the source: active = GI50 up to about 1.1 µM and inactive = higher.
Experiments:
Test in all cases: DTP human tumour cell line panel, 48 h
A549 = system: A549
DMS-114 = system: DMS-114
SNB-19 = system: SNB-19
HT-29 = system: HT-29
HOP-92 = system: HOP-92
NCI-H522 = system: NCI-H522
LOX IMVI = system: LOX IMVI
RPMI-8226 = system: RPMI-8226
U-251 = system: U-251
NCI-H23 = system: NCI-H23
HOP-62 = system: HOP-62
Malme-3M = system: Malme-3M
M14 = system: M14
SNB-75 = system: SNB-75
786-0 = system: 786-0
NCI-H226 = system: NCI-H226
DU-145 = system: DU-145
Hs-578T = system: Hs-578T
MDA-MB-435 = system: MDA-MB-435
MDA-N = system: MDA-N

| Compound | GI50 (A549) | GI50 (DMS-114) | GI50 (SNB-19) | GI50 (HT-29) | GI50 (HOP-92) | GI50 (NCI-H522) | GI50 (LOX IMVI) | GI50 (RPMI-8226) | GI50 (U-251) | GI50 (NCI-H23) | GI50 (HOP-62) | GI50 (Malme-3M) | GI50 (M14) | GI50 (SNB-75) | GI50 (786-0) | GI50 (NCI-H226) | GI50 (DU-145) | GI50 (Hs-578T) | GI50 (MDA-MB-435) | GI50 (MDA-N) |
| --- | --- | --- | --- | --- | --- | --- | --- | --- | --- | --- | --- | --- | --- | --- | --- | --- | --- | --- | --- | --- |
| C/N=N/N(C)C(=O)NC | > 100 µM (inactive) | > 100 µM (inactive) | > 100 µM (inactive) | > 100 µM (inactive) | > 100 µM (inactive) | > 100 µM (inactive) | > 100 µM (inactive) | > 100 µM (inactive) | > 100 µM (inactive) | > 100 µM (inactive) | > 100 µM (inactive) | > 100 µM (inactive) | > 100 µM (inactive) | > 100 µM (inactive) | > 100 µM (inactive) |  |  |  |  |  |
| O=C1/C=C(/c2ccc(O)cc2)[C@@H](O)Cc2ccc(O)cc2O1 | 56.1 µM (inactive) | 51.3 µM (inactive) | 93.5 µM (inactive) | > 100 µM (inactive) |  | 54.8 µM (inactive) | 92.3 µM (inactive) |  | > 100 µM (inactive) | > 100 µM (inactive) | 61.4 µM (inactive) | > 100 µM (inactive) | > 100 µM (inactive) |  | > 100 µM (inactive) | 0.859 µM (active) |  |  |  |  |
| CCc1cccc(C)c1NC(=O)C(=O)Cc1nc2ccccc2s1 | > 100 µM (inactive) | > 100 µM (inactive) | > 100 µM (inactive) | > 100 µM (inactive) | 0.47 µM (active) | > 100 µM (inactive) |  |  | > 100 µM (inactive) | > 100 µM (inactive) |  | > 100 µM (inactive) | > 100 µM (inactive) | > 100 µM (inactive) | > 100 µM (inactive) | > 100 µM (inactive) |  |  |  |  |
| Cc1cc(N(CCC#N)CCC#N)ccc1/C=C(\NC(=O)/C=C/c1ccccc1)NC(=O)Nc1ccc(Cl)cc1 | 32.5 µM (inactive) | 17.3 µM (inactive) | 48.4 µM (inactive) | > 100 µM (inactive) | 39.4 µM (inactive) |  | 1.83 µM (inactive) | > 100 µM (inactive) | 14.3 µM (inactive) | 22.2 µM (inactive) |  | 73.6 µM (inactive) | > 100 µM (inactive) |  | 51.6 µM (inactive) | 30.9 µM (inactive) |  |  |  |  |
| C=Nc1ccc([N+](=O)[O-])cc1 | > 100 µM (inactive) | > 100 µM (inactive) | > 100 µM (inactive) | > 100 µM (inactive) | > 100 µM (inactive) | > 100 µM (inactive) | 43.5 µM (inactive) | > 31.6 µM (inactive) | > 100 µM (inactive) | > 100 µM (inactive) |  | > 100 µM (inactive) | > 100 µM (inactive) | > 100 µM (inactive) | > 100 µM (inactive) | > 100 µM (inactive) |  |  |  |  |
| CCNC(=O)O/N=C1\CCC2[C@@H]3CC=C4C[C@@H](OC(=O)NCC)CC[C@]4(C)C3CC[C@]12C (some centres undefined) | 2.16 µM (inactive) | 0.358 µM (active) | 0.495 µM (active) | 2.86 µM (inactive) | 3.08 µM (inactive) | 1.57 µM (inactive) | 0.537 µM (active) | 1.46 µM (inactive) | 2.09 µM (inactive) | 1.08 µM (active) | 22.3 µM (inactive) | 0.267 µM (active) | 1.31 µM (inactive) | 2.69 µM (inactive) | 2.91 µM (inactive) |  |  |  |  |  |
| CCCN(CCC)c1c([N+](=O)[O-])cc(C(=O)N(C)C)cc1[N+](=O)[O-] | 51.5 µM (inactive) | 33.4 µM (inactive) |  | > 100 µM (inactive) |  | 62.1 µM (inactive) |  | 52.2 µM (inactive) | 86.5 µM (inactive) | 53.2 µM (inactive) |  | 52.6 µM (inactive) | 96.6 µM (inactive) | 17 µM (inactive) | > 100 µM (inactive) |  |  |  |  |  |
| CCC1=CCC(P(=O)(c2ccccc2)c2ccccc2)CC1C (centres undefined) | 37.1 µM (inactive) | 32.9 µM (inactive) | 27.5 µM (inactive) | > 100 µM (inactive) | 25.5 µM (inactive) | 20.7 µM (inactive) | 44.3 µM (inactive) | 22.9 µM (inactive) | 46.1 µM (inactive) | 39.7 µM (inactive) |  | 41.7 µM (inactive) | 32.6 µM (inactive) | 18.5 µM (inactive) | 39 µM (inactive) | 39.2 µM (inactive) |  |  |  |  |
| O=c1cc(/C=C/c2ccc(O)c(O)c2)cc(/C=C/c2ccc(O)c(O)c2)o1 | 12.8 µM (inactive) |  | 8.28 µM (inactive) | 11.4 µM (inactive) | 15.2 µM (inactive) | 1.68 µM (inactive) | 15.7 µM (inactive) | 5.02 µM (inactive) | 6.95 µM (inactive) | 14.9 µM (inactive) | 10.5 µM (inactive) | 5.82 µM (inactive) | 10.5 µM (inactive) | 10.5 µM (inactive) | 14.3 µM (inactive) | 14.9 µM (inactive) | 9.23 µM (inactive) | 8.05 µM (inactive) | 12.9 µM (inactive) | 11.6 µM (inactive) |
| COC(=O)[C@@H]1c2[nH]c3ccccc3c2C[C@@H]2c3ccccc3NC(=O)[C@@H]21 | 38.8 µM (inactive) | > 100 µM (inactive) | > 80.2 µM (inactive) | > 100 µM (inactive) |  | > 100 µM (inactive) | 31 µM (inactive) | > 49.1 µM (inactive) | 15.4 µM (inactive) | > 90.8 µM (inactive) | 14.3 µM (inactive) | > 46.5 µM (inactive) | > 78.5 µM (inactive) | 12.7 µM (inactive) | 42.8 µM (inactive) | 18.3 µM (inactive) |  |  |  |  |

Source: ChEMBL document CHEMBL1201862, “PubChem BioAssay data set” (2004)
